Here are results for one compound from ChEMBL document CHEMBL5042544, “Discovery of a Potent and Selective ATAD2 Bromodomain Inhibitor with Antiproliferative Activity in Breast Cancer Models” (J Med Chem, 2022).

Active and inactive are the calls of the source. The rule behind the calls is not given here.

Experiment [1] concerns the target Histone acetyltransferase KAT2A (Homo sapiens) (UniProt Q92830). The experiment is described as follows: Binding affinity to human GCN5L2 bromodomain assessed as residual activity at 300 nM by BROMOscan method relative to control.
For another experiment, the species on record is Homo sapiens. Put plainly: Selectivity ratio of IC50 for Inhibition of […] GST-ATAD2 BD (981 to 1108 residues) (unknown origin) expressed in Escherichia coli BL21 (DE3) to IC50 for Halo-tagged Histone H3.3 from Nanoluc-ATAD2 BD ([…] residues) (unknown origin) transfected in human HCT116 cells.
Experiment [2] deals with Bromodomain-containing protein 1 (Homo sapiens) (UniProt O95696). Put plainly: Binding affinity to human BRD1 bromodomain assessed as residual activity at 300 nM by BROMOscan method relative to control.
Experiment [3] in a line: Binding affinity to human ATAD2A assessed as dissociation constant by BROMOscan method.
For experiment [4], the target named is T1, Bromodomain testis-specific protein (Homo sapiens, UniProt Q58F21). The experiment is described as follows: Binding affinity to human BRDT bromodomain 2 assessed as residual activity at 300 nM by BROMOscan method relative to control.
Experiment [5] deals with Transcription initiation factor TFIID subunit 1-like (Homo sapiens) (UniProt Q8IZX4). Put plainly: Binding affinity to human TAF1L bromodomain 2 assessed as residual activity at 300 nM by BROMOscan method relative to control.
Experiment [6] deals with T2, Bromodomain-containing protein 2 (Homo sapiens, UniProt P25440). Put plainly: Binding affinity to human BRD2 bromodomain 1 assessed as residual activity at 300 nM by BROMOscan method relative to control.
Target sequence in this assay (P25440 whole entry, looked up): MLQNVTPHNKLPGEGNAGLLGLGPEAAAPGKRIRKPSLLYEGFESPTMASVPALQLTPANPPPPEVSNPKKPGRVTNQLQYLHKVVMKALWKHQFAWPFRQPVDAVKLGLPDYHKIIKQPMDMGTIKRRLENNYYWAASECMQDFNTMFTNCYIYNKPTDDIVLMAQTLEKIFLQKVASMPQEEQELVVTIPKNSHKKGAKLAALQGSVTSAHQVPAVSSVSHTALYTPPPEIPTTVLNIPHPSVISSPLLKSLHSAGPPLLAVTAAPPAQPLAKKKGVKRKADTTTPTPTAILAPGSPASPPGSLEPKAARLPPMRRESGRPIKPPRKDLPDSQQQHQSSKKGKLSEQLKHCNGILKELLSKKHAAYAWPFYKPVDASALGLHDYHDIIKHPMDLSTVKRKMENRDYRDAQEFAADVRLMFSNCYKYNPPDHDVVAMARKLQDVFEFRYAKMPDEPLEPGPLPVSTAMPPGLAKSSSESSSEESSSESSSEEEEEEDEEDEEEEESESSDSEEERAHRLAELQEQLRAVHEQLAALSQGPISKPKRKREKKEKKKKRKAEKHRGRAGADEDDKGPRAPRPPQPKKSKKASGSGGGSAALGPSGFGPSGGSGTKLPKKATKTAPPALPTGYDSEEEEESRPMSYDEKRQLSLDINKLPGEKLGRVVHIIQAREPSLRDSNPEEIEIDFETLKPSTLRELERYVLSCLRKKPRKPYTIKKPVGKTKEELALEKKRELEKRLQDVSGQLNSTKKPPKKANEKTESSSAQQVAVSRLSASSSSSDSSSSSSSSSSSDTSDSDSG
For another experiment, the system named is SK-BR-3. Put plainly: Antiproliferative activity against human SK-BR-3 cells expressing BRD1 assessed as inhibition of colony formation at 0.01 to 10 uM measured after 14 to 21 days by alamarBlue based colony formation assay. Type of experiment: functional, cell-based. As to conditions: dose 0.01-10 µM, time 14-21 day.
Experiment [7] addresses T1, Bromodomain testis-specific protein. The experiment is described as follows: Binding affinity to human BRDT bromodomain 1 assessed as residual activity at 300 nM by BROMOscan method relative to control.
Experiment [8] has as its target ATPase family AAA domain-containing protein 2B (Homo sapiens, UniProt Q9ULI0). Put plainly: Binding affinity to human ATAD2B bromodomain assessed as dissociation constant by BROMOscan method.
Experiment [9] has as its target Bromodomain-containing protein 4 (Homo sapiens, UniProt O60885). The experiment is described as follows: Displacement of Alexafluor 647-JQ1 from GST-BRD4 BD1 BD2 (44 to 460 residues) (unknown origin) incubated for 60 mins by fluorescence polarization assay. (In general: Polarisation of emitted light reports the rotation of a fluorescent probe.)
Experiment [10] addresses Nucleosome-remodeling factor subunit BPTF (Homo sapiens, UniProt Q12830). The experiment is described as follows: Binding affinity to human FALZ bromodomain by BROMOscan method.
The target of experiment [11] is T3, ATPase family AAA domain-containing protein 2 (Homo sapiens, UniProt Q6PL18).
T3 sequence (Q6PL18 whole entry): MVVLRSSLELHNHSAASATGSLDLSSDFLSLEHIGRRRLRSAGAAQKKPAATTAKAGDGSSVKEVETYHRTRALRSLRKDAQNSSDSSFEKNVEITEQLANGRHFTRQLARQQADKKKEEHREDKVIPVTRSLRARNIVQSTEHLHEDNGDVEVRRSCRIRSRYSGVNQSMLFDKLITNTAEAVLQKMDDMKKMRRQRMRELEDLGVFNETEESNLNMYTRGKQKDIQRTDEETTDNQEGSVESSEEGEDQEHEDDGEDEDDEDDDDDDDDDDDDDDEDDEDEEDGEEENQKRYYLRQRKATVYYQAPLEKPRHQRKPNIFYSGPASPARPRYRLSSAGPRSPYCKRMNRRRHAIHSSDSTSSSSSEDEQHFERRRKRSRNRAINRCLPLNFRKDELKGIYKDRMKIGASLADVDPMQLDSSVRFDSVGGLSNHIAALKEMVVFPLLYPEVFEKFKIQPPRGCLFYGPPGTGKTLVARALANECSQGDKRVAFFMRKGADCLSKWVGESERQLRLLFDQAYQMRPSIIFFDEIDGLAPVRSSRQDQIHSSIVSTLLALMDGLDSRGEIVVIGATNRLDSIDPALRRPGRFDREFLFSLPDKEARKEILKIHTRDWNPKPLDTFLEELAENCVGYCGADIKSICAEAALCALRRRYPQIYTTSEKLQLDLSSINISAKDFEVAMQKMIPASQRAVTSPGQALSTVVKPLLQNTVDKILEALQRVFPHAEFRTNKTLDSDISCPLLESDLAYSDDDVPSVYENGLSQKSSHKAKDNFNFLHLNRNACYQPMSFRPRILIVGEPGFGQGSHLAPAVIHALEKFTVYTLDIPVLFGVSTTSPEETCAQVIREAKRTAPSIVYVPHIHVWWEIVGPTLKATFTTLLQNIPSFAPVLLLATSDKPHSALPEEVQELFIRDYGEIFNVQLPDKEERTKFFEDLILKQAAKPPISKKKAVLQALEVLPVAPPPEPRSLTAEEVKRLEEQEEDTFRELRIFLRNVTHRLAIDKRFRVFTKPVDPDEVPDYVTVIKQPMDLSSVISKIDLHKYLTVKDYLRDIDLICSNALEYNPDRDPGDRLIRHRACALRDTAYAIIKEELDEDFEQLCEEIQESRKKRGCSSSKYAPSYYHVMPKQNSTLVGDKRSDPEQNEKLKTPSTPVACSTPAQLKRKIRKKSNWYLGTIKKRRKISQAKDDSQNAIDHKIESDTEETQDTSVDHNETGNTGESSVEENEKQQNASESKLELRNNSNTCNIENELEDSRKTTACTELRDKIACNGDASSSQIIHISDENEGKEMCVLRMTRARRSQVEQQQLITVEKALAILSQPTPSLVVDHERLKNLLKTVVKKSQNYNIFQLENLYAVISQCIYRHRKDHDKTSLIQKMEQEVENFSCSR
The experiment is described as follows: Displacement of Halo-tagged Histone H3.3 from Nanoluc-ATAD2 BD (962 to 1119 residues) (unknown origin) transfected in human HCT116 cells incubated for 18 hrs in presence of efflux inhibitor elacridar by NanoBRET assay. Type of experiment: cell-based, HCT-116. (Bioluminescence resonance energy transfer reports proximity on the nanometre scale.)

Experiment [12] addresses T2, Bromodomain-containing protein 2. The experiment is described as follows: Binding affinity to human BRD2 bromodomain 2 assessed as dissociation constant by BROMOscan method.
Target sequence in this assay (P25440 whole entry): as the sequence (P25440 whole entry, looked up) above
Experiment [13] has the same target. Put plainly: Binding affinity to human BRD2 bromodomain 1 assessed as dissociation constant by BROMOscan method.
Target sequence in this assay (P25440 whole entry): as the sequence (P25440 whole entry, looked up) above
Experiment [14] concerns the target E3 ubiquitin-protein ligase TRIM33 (Homo sapiens) (UniProt Q9UPN9). The experiment is described as follows: Binding affinity to human TRIM33 bromodomain assessed as residual activity at 300 nM by BROMOscan method relative to control.
In experiment [15] the target is T1, Bromodomain testis-specific protein. Put plainly: Binding affinity to human BRDT bromodomain 1 assessed as dissociation constant by BROMOscan method.
In experiment [16] the target is CREB-binding protein (Homo sapiens) (UniProt Q92793). The experiment is described as follows: Binding affinity to human CREBBP bromodomain assessed as residual activity at 300 nM by BROMOscan method relative to control.
Experiment [17] has as its target T3, ATPase family AAA domain-containing protein 2. The experiment is described as follows: Binding affinity to ATAD2 bromodomain (981 to 1108 residues) (unknown origin) expressed in Escherichia coli BL21 (DE3) by BROMOscan method.

Chain of ATPase family AAA domain-containing protein 2B (Q9ULI0 whole entry, the tested form may be a part): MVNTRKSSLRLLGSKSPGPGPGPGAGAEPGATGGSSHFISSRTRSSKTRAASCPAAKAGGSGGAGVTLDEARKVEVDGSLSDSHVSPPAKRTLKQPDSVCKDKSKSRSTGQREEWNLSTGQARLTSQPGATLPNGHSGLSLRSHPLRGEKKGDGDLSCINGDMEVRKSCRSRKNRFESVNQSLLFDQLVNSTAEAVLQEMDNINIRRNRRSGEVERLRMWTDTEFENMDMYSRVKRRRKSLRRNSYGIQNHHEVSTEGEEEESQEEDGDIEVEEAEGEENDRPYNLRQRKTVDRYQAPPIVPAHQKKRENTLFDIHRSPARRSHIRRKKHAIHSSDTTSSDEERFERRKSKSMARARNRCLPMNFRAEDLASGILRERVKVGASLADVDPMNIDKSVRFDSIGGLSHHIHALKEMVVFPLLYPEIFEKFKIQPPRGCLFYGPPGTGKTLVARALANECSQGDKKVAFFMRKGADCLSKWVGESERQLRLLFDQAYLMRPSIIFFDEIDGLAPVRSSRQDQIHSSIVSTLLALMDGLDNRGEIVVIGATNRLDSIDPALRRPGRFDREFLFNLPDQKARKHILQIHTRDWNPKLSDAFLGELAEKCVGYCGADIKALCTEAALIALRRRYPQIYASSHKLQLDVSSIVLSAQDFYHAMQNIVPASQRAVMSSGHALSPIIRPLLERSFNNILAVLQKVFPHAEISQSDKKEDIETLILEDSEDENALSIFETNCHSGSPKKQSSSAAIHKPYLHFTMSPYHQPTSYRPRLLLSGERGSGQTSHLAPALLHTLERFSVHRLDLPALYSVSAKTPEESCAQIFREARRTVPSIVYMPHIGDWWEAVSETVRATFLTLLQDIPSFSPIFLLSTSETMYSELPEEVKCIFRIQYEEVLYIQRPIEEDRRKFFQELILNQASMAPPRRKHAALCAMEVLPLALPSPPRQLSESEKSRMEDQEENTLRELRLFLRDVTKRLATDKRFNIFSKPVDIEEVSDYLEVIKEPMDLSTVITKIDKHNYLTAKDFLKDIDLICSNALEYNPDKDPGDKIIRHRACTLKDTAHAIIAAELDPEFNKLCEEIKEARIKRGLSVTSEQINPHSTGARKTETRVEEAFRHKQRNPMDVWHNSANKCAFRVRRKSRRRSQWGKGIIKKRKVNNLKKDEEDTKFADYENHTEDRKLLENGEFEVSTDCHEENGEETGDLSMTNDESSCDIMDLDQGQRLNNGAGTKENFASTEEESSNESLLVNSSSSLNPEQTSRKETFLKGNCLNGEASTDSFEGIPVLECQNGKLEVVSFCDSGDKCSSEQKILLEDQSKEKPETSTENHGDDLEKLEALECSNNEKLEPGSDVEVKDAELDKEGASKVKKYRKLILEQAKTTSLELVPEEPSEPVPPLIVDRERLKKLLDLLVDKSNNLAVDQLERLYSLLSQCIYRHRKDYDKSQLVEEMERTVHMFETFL
Chain of Transcription initiation factor TFIID subunit 1-like (Homo sapiens) (Q8IZX4 whole entry): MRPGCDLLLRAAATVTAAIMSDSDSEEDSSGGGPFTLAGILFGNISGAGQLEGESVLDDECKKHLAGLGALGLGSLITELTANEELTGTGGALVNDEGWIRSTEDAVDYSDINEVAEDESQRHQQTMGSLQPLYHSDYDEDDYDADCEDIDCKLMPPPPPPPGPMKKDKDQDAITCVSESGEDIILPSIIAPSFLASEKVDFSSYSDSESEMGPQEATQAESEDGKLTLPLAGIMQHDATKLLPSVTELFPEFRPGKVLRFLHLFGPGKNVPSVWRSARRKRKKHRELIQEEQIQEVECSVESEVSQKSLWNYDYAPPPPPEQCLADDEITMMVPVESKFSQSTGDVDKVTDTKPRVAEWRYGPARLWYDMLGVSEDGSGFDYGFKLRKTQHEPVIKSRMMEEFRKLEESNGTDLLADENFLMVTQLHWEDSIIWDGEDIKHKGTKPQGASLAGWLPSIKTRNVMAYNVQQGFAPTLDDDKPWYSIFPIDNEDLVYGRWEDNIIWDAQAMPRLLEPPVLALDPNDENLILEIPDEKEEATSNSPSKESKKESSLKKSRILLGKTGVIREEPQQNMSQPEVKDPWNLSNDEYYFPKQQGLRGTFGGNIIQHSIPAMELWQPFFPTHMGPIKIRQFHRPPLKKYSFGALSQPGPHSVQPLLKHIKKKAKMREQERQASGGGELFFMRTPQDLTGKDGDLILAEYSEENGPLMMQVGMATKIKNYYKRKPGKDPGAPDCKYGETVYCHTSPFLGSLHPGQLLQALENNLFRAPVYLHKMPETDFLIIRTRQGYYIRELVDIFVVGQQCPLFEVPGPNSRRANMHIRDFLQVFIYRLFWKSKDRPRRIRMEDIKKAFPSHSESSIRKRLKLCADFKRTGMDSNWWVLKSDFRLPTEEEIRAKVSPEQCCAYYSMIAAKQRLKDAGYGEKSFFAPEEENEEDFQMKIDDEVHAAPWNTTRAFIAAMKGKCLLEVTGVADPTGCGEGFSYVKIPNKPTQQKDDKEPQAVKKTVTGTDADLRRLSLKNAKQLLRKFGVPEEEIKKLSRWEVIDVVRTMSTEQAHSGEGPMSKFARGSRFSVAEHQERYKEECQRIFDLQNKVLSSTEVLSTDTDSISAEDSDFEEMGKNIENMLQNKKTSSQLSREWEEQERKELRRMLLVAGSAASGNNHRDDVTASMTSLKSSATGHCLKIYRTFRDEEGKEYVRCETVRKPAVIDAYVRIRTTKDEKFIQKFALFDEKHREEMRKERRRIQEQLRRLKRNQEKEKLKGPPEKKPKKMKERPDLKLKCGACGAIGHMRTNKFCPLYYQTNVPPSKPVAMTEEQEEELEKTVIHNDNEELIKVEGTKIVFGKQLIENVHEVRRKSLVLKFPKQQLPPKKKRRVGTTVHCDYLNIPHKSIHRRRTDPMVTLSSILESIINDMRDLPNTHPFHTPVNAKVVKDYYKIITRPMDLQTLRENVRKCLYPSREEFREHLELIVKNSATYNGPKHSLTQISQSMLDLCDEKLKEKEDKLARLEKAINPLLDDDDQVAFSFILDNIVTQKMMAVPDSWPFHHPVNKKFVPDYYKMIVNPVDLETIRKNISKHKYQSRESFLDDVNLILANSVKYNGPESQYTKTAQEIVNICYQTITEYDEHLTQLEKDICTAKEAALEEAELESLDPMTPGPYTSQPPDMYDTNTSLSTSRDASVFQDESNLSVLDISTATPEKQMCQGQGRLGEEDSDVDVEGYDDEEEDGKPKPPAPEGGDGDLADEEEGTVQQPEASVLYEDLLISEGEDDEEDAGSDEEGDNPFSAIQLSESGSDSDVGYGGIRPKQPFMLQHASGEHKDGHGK

The pKd is the Kd on a negative log10 scale, so that one unit is a factor of ten. The Kd is the equilibrium constant for the complex coming apart. For orientation: IC50 means the point on the concentration scale where inhibition reaches its midpoint. With `Cc1nnc2c(NC3CCN(CC(C)(C)F)CC3)cc(C(=O)N3[C@@H]4c5ccccc5C[C@H]3C(=O)N[C@@H]4C(C)C)nn12`, the Activity is 73% in experiment [1]; 75% in experiment [2]; 71% in [4]; 82% in experiment [5]; 47% in experiment [6]; 48% in experiment [7]. Further, the Activity is 96% in experiment [14] and 61% in experiment [16]. Also, the Ratio IC50 in the experiment filed under Homo sapiens stood at 20. For the same compound, the pKd in [3] amounted to 8.9. For the same compound, in the experiment on SK-BR-3, the outcome was inactive. The Kd in [8] was 7.94 nM; in experiment [10] it was more than 316 nM; in [12], 200 nM; in experiment [13], 126 nM; in experiment [15] it was 200 nM; in [17], 1.26 nM. Further, the IC50 in [9] was 20000 nM; in experiment [11] it was 100 nM.
